Data from US4794169A, “Pentapeptides with cell growth regulatory effects and a process for the preparation thereof” (Bio-Tech A/S, priority 1985, dated 1988).
Square brackets hold non-standard residues; d marks the D form. Peptide text beside a SMILES is read from it. pGlu = O=C1CC[C@@H](C(=O)O)N1

System: mouse epidermal mitotic rate
Assay: Change in mouse epidermal mitotic rate after intraperitoneal injection (Colcemid method)
Type: in vivo
Settings: mouse epidermis, first three hours after i.p. injection, vs control animals from same cage
Procedure: In the following Table 1 in vivo results (change in mouse epidermal mitotic rate) have been described as example for four different new pentapeptides. The epidermal mitotic rate was measured for the first three hours after intraperitoneal injection of the new pentapeptides. Mitotic rate was determined by means of "Colcemid" (Demecolcine). A reduced rate was determined as a percentage in comparison with control animals from the same cage.

O=C(O)CC[C@H](NC(=O)[C@@H]1CCC(=O)N1)C(=O)N[C@@H](CC(=O)O)C(=O)N[C@@H](CO)C(=O)NCC(=O)O [Compound 1, pGlu--Glu--Asp--Ser--Gly] ([pGlu]EDSG-OH)
Decrease in mitotic rate % (10^-11 -10^-14 moles of peptide injected per mouse): 40-44%

NC(=O)CC[C@H](NC(=O)[C@@H]1CCC(=O)N1)C(=O)N[C@@H](CC(=O)O)C(=O)N[C@@H](CO)C(=O)NCC(=O)O [Compound 2, pGlu--Gln--Asp--Ser--Gly] ([pGlu]QDSG-OH)
Decrease in mitotic rate % (10^-11 moles of peptide injected per mouse): 39%

C[C@H](NC(=O)[C@H](CC(=O)O)NC(=O)[C@H](CCC(=O)O)NC(=O)[C@@H]1CCC(=O)N1)C(=O)NCC(=O)O [Compound 3, pGlu--Glu--Asp--Ala--Gly] ([pGlu]EDAG-OH)
Decrease in mitotic rate % (10^-13 moles of peptide injected per mouse): 36%
